Measured values as given in US20230053540A1, “TREATMENT OF LIVER INJURY” (Massachusetts Institute of Technology, priority 2019, published 2023).

Test system: hepatocytes
Assay: Seq-Well scRNA-Seq of hepatocytes after APAP overdose (signature scores, DEG vs untreated)
Format: in vivo, mouse
[1] = hepatocytes, cluster A48 (APAP) vs other treatment clusters
[2] = time point A6 vs untreated (UT)

Compound: CC(=O)Nc1ccc(O)cc1 [APAP, acetaminophen]
- Rdh7 avg_logFC [1]: 0.4684
- Reep6 avg_logFC [1]: 0.6233
- Retsat avg_logFC [1]: 0.7096
- Rgs16 avg_logFC [1]: 0.4545
- Rpl38 avg_logFC [1]: 0.3322
- Scand1 avg_logFC [1]: 0.2707
- Serpina3m avg_logFC [1]: 0.4034
- Serpina1d avg_logFC [1]: 0.3053
- Serping1 avg_logFC [1]: 0.5777
- Slc25a10 avg_logFC [1]: 0.4313
- Slc25a20 avg_logFC [1]: 0.3875
- Slc25a47 avg_logFC [1]: 0.6175
- Slc27a5 avg_logFC [1]: 0.4062
- Slc37a4 avg_logFC [1]: 0.4461
- Slco1a4 avg_logFC [1]: 0.5091
- Snord118 avg_logFC [1]: 0.4771
- St3gal5 avg_logFC [1]: 0.5549
- Sult1a1 avg_logFC [1]: 0.4827
- Syvn1 avg_logFC [1]: 0.3041
- Tcea3 avg_logFC [1]: 0.3938
- Tef avg_logFC [1]: 0.3394
- Tmbim4 avg_logFC [1]: 0.3693
- Tmbim6 avg_logFC [1]: 0.3713
- Ttc36 avg_logFC [1]: 0.5638
- Ttpa avg_logFC [1]: 0.4431
- Ttr avg_logFC [1]: 0.4225
- Ugt2b5 avg_logFC [1]: 0.4388
- Vnn3 avg_logFC [1]: 0.3008
- Vtn avg_logFC [1]: 0.5228
- Yipf3 avg_logFC [1]: 0.2785
- avg_logFC 15-Sep [2]: −0.4092
- avg_logFC 0610007P14Rik [2]: −0.257
- avg_logFC 0610011F06Rik [2]: −0.3037
- avg_logFC 1110008F13Rik [2]: −0.3751
- avg_logFC 1110058L19Rik [2]: −0.2581
- avg_logFC 1810022K09Rik [2]: −0.3001
- avg_logFC 2010107E04Rik [2]: −0.3182
- avg_logFC 3110043021Rik [2]: 0.2694
- avg_logFC AA474408 [2]: 0.3471
- avg_logFC AW112010 [2]: −0.2981
- avg_logFC Aadat [2]: −0.3186
- avg_logFC Abcc2 [2]: 0.2897
- avg_logFC Abcd3 [2]: −0.2718
- avg_logFC Abhd14b [2]: −0.3937
- avg_logFC Acads [2]: −0.3242
- avg_logFC Acbd5 [2]: −0.3952
- avg_logFC Acot13 [2]: −0.2886
- avg_logFC Actn4 [2]: 0.3124
- avg_logFC Adtrp [2]: −0.3664
- avg_logFC Agpat2 [2]: −0.2982
- avg_logFC Ak2 [2]: −0.3451
- avg_logFC Akap11 [2]: 0.3464
- avg_logFC Akr1a1 [2]: −0.3269
- avg_logFC Akr1e1 [2]: −0.2582
- avg_logFC Amy1 [2]: −0.283
- avg_logFC Anapc13 [2]: −0.3642
- avg_logFC Ankrd11 [2]: 0.4156
- avg_logFC Anp32a [2]: −0.317
- avg_logFC Anxa5 [2]: 0.3654
- avg_logFC Aox3 [2]: −0.3333
- avg_logFC Apc [2]: 0.279
- avg_logFC Apcs [2]: 0.2989
- avg_logFC Apom [2]: −0.3024
- avg_logFC Aqp9 [2]: −0.3109
- avg_logFC Arl6ip1 [2]: −0.3649
- avg_logFC Atf4 [2]: 0.3411
- avg_logFC Atf6 [2]: 0.3778
- avg_logFC Atp1b1 [2]: 0.3702
- avg_logFC Atp2b1 [2]: 0.3321
- avg_logFC Atp5c1 [2]: −0.3476
- avg_logFC Atp5g3 [2]: −0.3002
- avg_logFC Atp5o [2]: −0.3316
- avg_logFC BC005537 [2]: 0.3543
- avg_logFC Baat [2]: −0.3086
- avg_logFC Baz1a [2]: 0.2596
- avg_logFC Bckdha [2]: −0.35
- avg_logFC Bet1 [2]: −0.2966
- avg_logFC Bhmt2 [2]: −0.3114
- avg_logFC Bnip3 [2]: −0.3362
- avg_logFC Bola3 [2]: −0.3689
- avg_logFC Bptf [2]: 0.3245
- avg_logFC Bsg [2]: −0.3152
- avg_logFC Bst2 [2]: −0.3156
- avg_logFC C8b [2]: −0.3159
- avg_logFC C130074G19Rik [2]: −0.3563
- avg_logFC Car5a [2]: −0.3088
- avg_logFC Cars [2]: 0.3158
- avg_logFC Cast [2]: 0.4009
- avg_logFC Cebpb [2]: −0.3617
- avg_logFC Cela1 [2]: −0.2723
- avg_logFC Cep85l [2]: 0.2779
- avg_logFC Ces1f [2]: −0.3126
- avg_logFC Cfhr1 [2]: −0.3253
- avg_logFC Chmp4b [2]: 0.3002
- avg_logFC Chuk [2]: 0.3724
- avg_logFC Cideb [2]: −0.3684
- avg_logFC Cisd1 [2]: −0.3727
- avg_logFC Cldn2 [2]: −0.2511
- avg_logFC Cldn3 [2]: −0.3145
- avg_logFC Cnpy2 [2]: −0.3729
- avg_logFC Coq9 [2]: −0.3479
- avg_logFC Coro1c [2]: 0.3067
- avg_logFC Cox6b1 [2]: −0.362
- avg_logFC Cox8a [2]: −0.3993
- avg_logFC Cpb2 [2]: −0.3215
- avg_logFC Cpt1a [2]: 0.2611
- avg_logFC Csde1 [2]: 0.3156
- avg_logFC Csrp3 [2]: −0.294
- avg_logFC Ctsc [2]: 0.361
- avg_logFC Cxcl1 [2]: 0.3701
- avg_logFC Cybb [2]: 0.3778
- avg_logFC Cyp4f14 [2]: −0.2959
- avg_logFC Cyp4f15 [2]: −0.2998
- avg_logFC Cyp27a1 [2]: −0.3735
- avg_logFC D10Jhu81e [2]: −0.3957
- avg_logFC D17Wsu92e [2]: 0.2525
- avg_logFC Ddah1 [2]: −0.312
- avg_logFC Ddx3y [2]: 0.3395
- avg_logFC Derl2 [2]: −0.3317
- avg_logFC Dgat2 [2]: −0.3433
- avg_logFC Dhdh [2]: −0.3348
- avg_logFC Dhrs4 [2]: −0.3321
- avg_logFC Dhx9 [2]: 0.3504
- avg_logFC Dnaja2 [2]: 0.3723
- avg_logFC Dnajc5 [2]: 0.3265
- avg_logFC Dnajc19 [2]: −0.316
- avg_logFC Dync1h1 [2]: 0.3796
- avg_logFC Dync1li1 [2]: 0.2624
- avg_logFC Ebp [2]: −0.3553
- avg_logFC Echs1 [2]: −0.3316
- avg_logFC Edf1 [2]: −0.3817
- avg_logFC Eef1a1 [2]: 0.2826
- avg_logFC Eif3c [2]: 0.302
- avg_logFC Eif4b [2]: 0.3682
- avg_logFC Eprs [2]: 0.3701
- avg_logFC Erbb2ip [2]: 0.3332
- avg_logFC Esd [2]: −0.2808
- avg_logFC Ethe1 [2]: −0.3334
- avg_logFC Etnk1 [2]: 0.316
- avg_logFC F10 [2]: −0.2719
- avg_logFC Fah [2]: −0.2593
- avg_logFC Fam25c [2]: −0.2977
- avg_logFC Fam214a [2]: −0.2658
- avg_logFC Fbxo21 [2]: −0.2631
- avg_logFC Fcna [2]: 0.3774
- avg_logFC Fdps [2]: −0.2663
- avg_logFC Fkbp4 [2]: −0.3534
- avg_logFC Fus [2]: 0.3393
- avg_logFC Gadd45g [2]: −0.3554
- avg_logFC Gadd45gip1 [2]: −0.3041
- avg_logFC Gcdh [2]: −0.3003
- avg_logFC Ghr [2]: −0.3648
- avg_logFC Gjb1 [2]: −0.3166
- avg_logFC Glyctk [2]: −0.2977
- avg_logFC Gm2788 [2]: −0.2831
- avg_logFC Gm4951 [2]: −0.3221
- avg_logFC Gm10800 [2]: 0.5626
- avg_logFC Gm24245 [2]: 0.5465
- avg_logFC Grhpr [2]: −0.3531
- avg_logFC Gsr [2]: 0.4128
- avg_logFC Gstm4 [2]: −0.3809
- avg_logFC Gyk [2]: 0.3684
- avg_logFC Hibch [2]: −0.3271
- avg_logFC Hipk3 [2]: 0.3394
- avg_logFC Hist1h1c [2]: −0.3009
- avg_logFC Hmgcs1 [2]: −0.3491
- avg_logFC Hsd17b10 [2]: −0.3772
- avg_logFC Hsp90b1 [2]: −0.2615
- avg_logFC Hspa5 [2]: 0.2682
- avg_logFC Huwe1 [2]: 0.3879
- avg_logFC Ifrd1 [2]: 0.4904
- avg_logFC Il6ra [2]: 0.3044
- avg_logFC Ipo5 [2]: 0.2687
- avg_logFC Ipo7 [2]: 0.3246
- avg_logFC Ivns1abp [2]: 0.3566
- avg_logFC Jhdm1d [2]: 0.3041
- avg_logFC Kif21a [2]: 0.4042
- avg_logFC Lap3 [2]: −0.3644
- avg_logFC Larp4b [2]: 0.3421
- avg_logFC Lcp1 [2]: 0.484
- avg_logFC Lrrfip2 [2]: 0.3731
- avg_logFC Lsmd1 [2]: −0.3131
- avg_logFC Macf1 [2]: 0.4042
- avg_logFC Mak16 [2]: 0.3171
- avg_logFC Map3k5 [2]: 0.3347
- avg_logFC Mbl2 [2]: −0.3465
- avg_logFC Mcee [2]: −0.3199
- avg_logFC Mdh1 [2]: −0.3077
- avg_logFC Mdm2 [2]: 0.3283
- avg_logFC Metap2 [2]: 0.3686
- avg_logFC Mettl7a1 [2]: −0.3221
- avg_logFC Mien1 [2]: −0.3704
- avg_logFC Mki67ip [2]: 0.3184
- avg_logFC Mocs2 [2]: −0.3467
- avg_logFC Mpc1 [2]: −0.2802
- avg_logFC Mrc1 [2]: 0.3404
- avg_logFC Mrp133 [2]: −0.2654
- avg_logFC Mrpl11 [2]: −0.2685
- avg_logFC Mrpl12 [2]: −0.3082
- avg_logFC Mrpl15 [2]: −0.2912
- avg_logFC Mrpl34 [2]: −0.2838
- avg_logFC Mrpl41 [2]: −0.2674
